# pIC50, pKi: −log10 of the molar value. Where a SMILES comes first, the peptide text is derived from it. Bridges are numbered along the chain shown (N, C = ends). [ ]: non-standard residue; d: D form. 2Nal = N[C@@H](Cc1ccc2ccccc2c1)C(=O)O; R8 = C=CCCCCCC[C@@](C)(N)C(=O)O; Cba = N[C@@H](CC1CCC1)C(=O)O; S5 = C=CCCC[C@](C)(N)C(=O)O
# Key:
# SJSA-1 cells = test: Cell lysis by peptidomimetic macrocycles (LDH release); format: cell-based; details: 1 h at 37C
# MDMX = target: T1, MDMX (Homo sapiens, UniProt O15151); test: Competitive fluorescence polarization assay for MDMX; format: binding; details: competitive FP assay; for pIC50: read-out: IC50 (MDMX); for pKi: read-out: Ki (MDMX)
# T1 sequence (O15151 1-125): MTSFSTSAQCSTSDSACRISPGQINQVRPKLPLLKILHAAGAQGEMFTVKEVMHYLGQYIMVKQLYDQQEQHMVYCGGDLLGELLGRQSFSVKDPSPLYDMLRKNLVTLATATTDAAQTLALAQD
# Caspase 3 = Caspase 3 detection assay in SJSA1 cells; format: cell-based; details: 48 h, Caspase 3 activation over DMSO-treated cells; for caspase 0.3 uM: 0.3 uM peptide; for caspase 3 uM: 3 uM peptide; for caspase 10 uM: 10 uM peptide; for caspase 30 uM: 30 uM peptide; for caspase 1 uM: 1 uM peptide
Structure (SMILES),6.25 uM % Lysed cells (1 h LDH) (SJSA-1 cells) [%],25 uM % Lysed cells (1 h LDH) (SJSA-1 cells) [%],50 uM % Lysed cells (1 h LDH) (SJSA-1 cells) [%],pIC50 (MDMX),pKi (MDMX),caspase 0.3 uM (Caspase 3),caspase 3 uM (Caspase 3),caspase 10 uM (Caspase 3),caspase 30 uM (Caspase 3),caspase 1 uM (Caspase 3)
"CC(=O)N[C@@H](CC(C)C)C(=O)N[C@H](C(=O)N[C@@H](Cc1ccccc1)C(=O)N[C@]1(C)CCCCCCC=CCCC[C@@](C)(C(=O)N[C@@H](CO)C(=O)N[C@@H](C)C(=O)N[C@@H](C)C(N)=O)NC(=O)[C@H](CC2CCCCC2)NC(=O)[C@H](CCC(N)=O)NC(=O)[C@H](C)NC(=O)[C@H](Cc2c[nH]c3ccccc23)NC(=O)[C@H](Cc2ccc(O)cc2)NC(=O)[C@H](CCC(=O)O)NC1=O)[C@@H](C)O (single isomer, unassigned) [compound 148]",0,−1,0,6.00 to 7.00,7.00 to 8.00,1,11,23,31,
"CC(=O)N[C@@H](CC(C)C)C(=O)N[C@H](C(=O)N[C@@H](Cc1ccccc1)C(=O)N[C@]1(C)CCCCCCC=CCCC[C@@](C)(C(=O)N[C@@H](CO)C(=O)N[C@@H](C)C(=O)N[C@@H](C)C(N)=O)NC(=O)[C@H](CC2CCC2)NC(=O)[C@H](CCC(N)=O)NC(=O)[C@H](C)NC(=O)[C@H](Cc2c[nH]c3ccccc23)NC(=O)[C@H](Cc2ccc(O)cc2)NC(=O)[C@H](CCC(=O)O)NC1=O)[C@@H](C)O (single isomer, unassigned) [compound 153]",4,2,3,,,2,10,15,20,
"CC(=O)N[C@@H](CC(C)C)C(=O)N[C@H](C(=O)N[C@@H](Cc1ccccc1)C(=O)N[C@]1(C)CCCCCCC=CCCC[C@@](C)(C(=O)N[C@@H](C)C(=O)N[C@@H](C)C(=O)N[C@@H](Cc2ccccc2)C(=O)N[C@H](C)C(N)=O)NC(=O)[C@H](CC(C)C)NC(=O)[C@H](CCC(N)=O)NC(=O)[C@H](C)NC(=O)[C@H](Cc2c[nH]c3ccccc23)NC(=O)[C@H](Cc2ccc(O)cc2)NC(=O)[C@H](CCC(=O)O)NC1=O)[C@@H](C)O (single isomer, unassigned) [compound 219]",0,−1,2,,,1,5,17,34,
"CC[C@H](C)[C@H](NC(=O)[C@H](C)NC(=O)[C@H](C)NC(=O)[C@]1(C)CCCC=CCCCCCC[C@@](C)(NC(=O)[C@H](Cc2ccccc2)NC(=O)[C@@H](NC(=O)[C@H](CC(C)C)NC(C)=O)[C@@H](C)O)C(=O)N[C@@H](CCC(=O)O)C(=O)N[C@@H](Cc2c[nH]cn2)C(=O)N[C@@H](Cc2c[nH]c3ccccc23)C(=O)N[C@@H](C)C(=O)N[C@@H](CCC(N)=O)C(=O)N[C@@H](CC(C)C)C(=O)N1)C(=O)N[C@H](C)C(N)=O (single isomer, unassigned) [compound 223]",−2,−4,−1,,,1,1,5,18,
"CC(=O)N[C@@H](CC(C)C)C(=O)N[C@H](C(=O)N[C@@H](Cc1ccccc1)C(=O)N[C@]1(C)CCCCCCC=CCCC[C@@](C)(C(=O)N[C@@H](C)C(=O)N[C@@H](C)C(=O)N[C@@H](C)C(=O)N[C@@H](C)C(=O)N[C@@H](C)C(=O)N[C@H](C)C(N)=O)NC(=O)[C@H](CC(C)C)NC(=O)[C@H](CCC(N)=O)NC(=O)[C@H](C)NC(=O)[C@H](Cc2c[nH]c3cc(Cl)ccc23)NC(=O)[C@H](Cc2ccc(O)cc2)NC(=O)[C@H](C)NC1=O)[C@@H](C)O (single isomer, unassigned) [compound 338]",0,0,1,,,1,23,20,29,5
"CC(=O)N[C@@H](CC(C)C)C(=O)N[C@H](C(=O)N[C@@H](Cc1ccccc1)C(=O)N[C@]1(C)CCCCCCC=CCCC[C@@](C)(C(=O)N[C@@H](CO)C(=O)N[C@@H](C)C(=O)N[C@@H](C)C(=O)N[C@H](C)C(N)=O)NC(=O)[C@H](CC2CCC2)NC(=O)[C@H](CCC(N)=O)NC(=O)[C@H](C)NC(=O)[C@H](Cc2c[nH]c3ccccc23)NC(=O)[C@H](Cc2ccc(O)cc2)NC(=O)[C@H](CCC(=O)O)NC1=O)[C@@H](C)O (single isomer, unassigned) [compound 353]",0,0,0,7.00 to 8.00,> 8.00,1,5,7,30,2
CSCC[C@H](NC(=O)[C@H](C)NC(=O)[C@H](C)NC(=O)[C@]1(C)CCCC=CCCCCCC[C@@](C)(NC(=O)[C@H](Cc2ccccc2)NC(=O)[C@@H](NC(=O)[C@H](CC(C)C)NC(C)=O)[C@@H](C)O)C(=O)N[C@@H](C)C(=O)N[C@@H](Cc2ccc(O)cc2)C(=O)N[C@@H](Cc2c[nH]c3ccccc23)C(=O)N[C@@H](C)C(=O)N[C@@H](C)C(=O)N[C@@H](CC(C)C)C(=O)N1)C(=O)N[C@H](C)C(N)=O [compound 72] (Ac-LTF[R8]AYWAAL[S5]AAM[dA]-NH2; staple 4-11),2,0,3,,,1,1,4,10,
CC(=O)N[C@@H](CC(C)C)C(=O)N[C@H](C(=O)N[C@@H](Cc1ccc(F)c(F)c1)C(=O)N[C@]1(C)CCCCCC/C=C/CCC[C@@](C)(C(=O)N[C@@H](CO)C(=O)N[C@@H](C)C(=O)N[C@@H](C)C(N)=O)NC(=O)[C@H](CCC(C)C)NC(=O)[C@H](CCC(N)=O)NC(=O)[C@H](C)NC(=O)[C@H](Cc2c[nH]c3ccccc23)NC(=O)[C@H](Cc2ccc(O)cc2)NC(=O)[C@H](CCC(=O)O)NC1=O)[C@@H](C)O [compound 160],−1,−1,1,,,2,10,16,31,
CC(=O)N[C@@H](CC(C)C)C(=O)N[C@H](C(=O)N[C@@H](Cc1ccccc1)C(=O)N[C@]1(C)CCCCCCC=CCCC[C@@](C)(C(=O)N[C@@H](C)C(=O)N[C@@H](Cc2c[nH]cn2)C(=O)N[C@@H](Cc2ccccc2)C(=O)N[C@@H](C)C(N)=O)NC(=O)[C@H](CC(C)C)NC(=O)[C@H](CCC(N)=O)NC(=O)[C@H](C)NC(=O)[C@H](Cc2c[nH]c3ccccc23)NC(=O)[C@H](Cc2c[nH]cn2)NC(=O)[C@H](C)NC1=O)[C@@H](C)O [compound 183] (Ac-LTF[R8]AHWAQL[S5]AHFA-NH2; staple 4-11),2,0,3,,,1,1,4,8,
CC(=O)N[C@@H](CC(C)C)C(=O)N[C@H](C(=O)N[C@@H](Cc1ccccc1)C(=O)N[C@]1(C)CCCCCCC=CCCC[C@@](C)(C(=O)N[C@@H](CO)C(=O)N[C@@H](C)C(=O)N[C@@H](C)C(N)=O)NC(=O)[C@H](CC2CCC2)NC(=O)[C@H](CCC(N)=O)NC(=O)[C@H](C)NC(=O)[C@H](Cc2ccc3ccccc3c2)NC(=O)[C@H](Cc2ccc(O)cc2)NC(=O)[C@H](CCC(=O)O)NC1=O)[C@@H](C)O [compound 254] (Ac-LTF[R8]EY[2Nal]AQ[Cba][S5]SAA-NH2; staple 4-11),11,60,75,6.00 to 7.00,7.00 to 8.00,1,7,14,22,3
CC(=O)N[C@@H](CC(C)C)C(=O)N[C@H](C(=O)N[C@@H](Cc1ccccc1)C(=O)N[C@]1(C)CCCCCC/C=C/CCC[C@@](C)(C(=O)N[C@@H](C)C(=O)N[C@@H](C)C(=O)N[C@@H](C)C(=O)N[C@@H](C)C(=O)N[C@@H](C)C(=O)N[C@H](C)C(N)=O)NC(=O)[C@H](CC(C)C)NC(=O)[C@H](CCC(N)=O)NC(=O)[C@H](C)NC(=O)[C@H](Cc2c[nH]c3ccccc23)NC(=O)[C@H](Cc2ccc(O)cc2)NC(=O)[C@H](CCC(=O)O)NC1=O)[C@@H](C)O [compound 331] (Ac-LTF[R8]EYWAQL[S5]AAAAA[dA]-NH2; staple (E) 4-11),0,0,0,,,4.5,11,14.5,30.5,8

# From patent publication US8927500B2, “Peptidomimetic macrocycles” (Aileron Therapeutics, Inc., priority 2012, dated 2015)
